Results published in patent US7763426B2, “Probes and methods for detection of Escheridia coli and antibiotic resistance” (priority 2004, dated 2010).
{Fluorescein} = fluorescein label (binding site for anti-fluorescein Fab-HRP); {Biotin} = biotin (capture probe anchor)

How the values were obtained:
E. coli 16S rRNA = experiment: Amperometric detection of bacterial 16S rRNA, 65° C. hybridization (Examples 2, 3); format: binding, Escherichia coli; conditions: for sensitivity of electrochemical sensor assay (cells detected): five-fold serial dilutions of E. coli cells, capture probe EC434C, 5′-fluorescein 6 nt gap vs 3′-fluorescein 0 nt gap
[1] = Double-labeled Test Probes on the electrochemical sensor (no hybridization)
Protocol: FIG. 7. The effect of oligonucleotide length on electrochemical signal intensity. Single stranded oligonucleotides (‘Test Probes’) ranging from 20-60 bps in length modified at the 5′- and 3′-ends with biotin and fluorescein, respectively, were tested to examine the effect of probe length on signal intensity. Hybridization was not required in these experiments because, as shown in the inset, the double-labeled probes served as a bridge between fluorescein and biotin on the electrochemical sensor surface. The highest signal output was obtained using the 40 bp probe, yielding a lower limit of detection at a concentration of 10 pM. Background current output was measured using negative control (NC) sensors to which no cell lysates were applied.
Sensor characterization and surface functional layer preparation. Microfabricated electrochemical sensor arrays with an alkanethiolate self-assembled monolayer (SAM) were obtained from GeneFluidics (Monterey Park, Calif.). […]
Amperometric Detection of bacterial 16S rRNA. […] Amperometric current vs. time was measured using a multichannel potentiostat (GeneFluidics). The voltage was fixed at −200 mV (vs. reference), and the electroreduction current was measured at 60 sec after the HRP redox reaction reached steady state. All samples were analyzed in duplicate. […] Positive signals are determined by comparing the signals with the background using paired T test. […]

| Sequence | improvement in sensitivity (E. coli 16S rRNA; 3′-fluorescein and continuity of hybridization sites vs 5′-fluorescein with gap) | sensitivity of electrochemical sensor assay (cells detected) (E. coli 16S rRNA) | lower limit of detection ([1]; 5′-biotin, 3′-fluorescein Test Probe) | signal relative to 20mer and 60mer Test Probes ([1]; across a range of concentrations) |
| --- | --- | --- | --- | --- |
| TCCCCGCTGAAAGTACTTTACAACCCGAAGGCCTT (DNA TCCCCGCTGAAAGTACTTTACAACCCGAAGGCCTT; sugars by position and backbone not given here; further chemistry not fully specified; listed as Escherichia coli) [EC399D] | 24-25 fold | 260 cells | – | – |
| CTGAAAGTACTTTACAACCCGAAGGCCTTCTTCAT (DNA CTGAAAGTACTTTACAACCCGAAGGCCTTCTTCAT; DNA, backbone and methylation of C not given here; listed as Escherichia coli) [EC393D] | – | 6,200 cells | – | – |
| CGTCAATGAGCAAAGGTATTACTCCCTTCCTCCCCGCTGA (DNA CGTCAATGAGCAAAGGTATTACTCCCTTCCTCCCCGCTGA; DNA, 5' {Biotin}, 3' {Fluorescein}, backbone and methylation of C not given here) [40-mer] | – | – | 10 pM | higher signals |
